Source: patent US20210045385A1, “PYRIDAZINONE-SUBSTITUTED KETOXIMES AS HERBICIDES” (FMC Corporation, priority 2018, published 2021)

Key:
Type in all cases: in vivo
[1] = tested on: Italian ryegrass (Lolium multiflorum); assay: Test A preemergence, visual plant response rating; details: for Ryegrass, Italian plant response rating: 125 g ai/ha, preemergence, 0 to 100 scale, 0 no effect, 100 complete control; for Ryegrass, Italian plant response rating (0 to 100 scale): 500 g ai/ha Preemergence, approx. 10 days
In short: (§1)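 Formulated in a non-phytotoxic solvent mixture including surfactant, each test chemical was sprayed onto the soil surface after sowing, or onto seedlings 2 to 10 cm high. Roughly 10 days later, plants were compared with untreated controls and rated for injury from 0 (no effect) to 100 (complete control).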

[2] = tested on: barnyardgrass (Echinochloa crus-galli); assay: Test A preemergence, visual plant response rating; details: for Barnyardgrass plant response rating: 125 g ai/ha, preemergence, 0 to 100 scale, 0 no effect, 100 complete control; for Barnyardgrass plant response rating (0 to 100 scale): 500 g ai/ha Preemergence, approx. 10 days
In short: as §1

[3] = tested on: foxtail, giant (giant foxtail, Setaria faberii); assay: Test A preemergence, visual plant response rating; details: for Foxtail, Giant plant response rating: 125 g ai/ha, preemergence, 0 to 100 scale, 0 no effect, 100 complete control; for Foxtail, Giant plant response rating (0 to 100 scale): 500 g ai/ha Preemergence, approx. 10 days
In short: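 Preemergence: seeds in loam/sand blend given directed soil spray of compound in non-phytotoxic solvent with surfactant. Postemergence: plants 2–10 cm, one- to two-leaf stage, sprayed with same formulation. Visual injury rated vs untreated controls after ~10 days in greenhouse, 0 (no effect) to 100 (complete control).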

kochia (Kochia scoparia) [4] = assay: Test A preemergence, visual plant response rating; details: for Kochia plant response rating: 125 g ai/ha, preemergence, 0 to 100 scale, 0 no effect, 100 complete control; for Kochia plant response rating (0 to 100 scale): 500 g ai/ha Preemergence, approx. 10 days
In short: as §1

[5] = tested on: pigweed (Amaranthus retroflexus); assay: Test A preemergence, visual plant response rating; details: for Pigweed plant response rating: 125 g ai/ha, preemergence, 0 to 100 scale, 0 no effect, 100 complete control; for Pigweed plant response rating (0 to 100 scale): 500 g ai/ha Preemergence, approx. 10 days
In short: as §1

[6] = tested on: ragweed (common ragweed, Ambrosia elatior); assay: Test A preemergence, visual plant response rating; details: for Ragweed plant response rating: 125 g ai/ha, preemergence, 0 to 100 scale, 0 no effect, 100 complete control; for Ragweed plant response rating (0 to 100 scale): 500 g ai/ha Preemergence, approx. 10 days
In short: as §1

[7] = tested on: Italian ryegrass (Lolium multiflorum); assay: Test A postemergence, visual plant response rating; details: for Ryegrass, Italian plant response rating (0 to 100 scale): 500 g ai/ha, postemergence, 0 is no effect, 100 is complete control; for Ryegrass, Italian plant response rating: Postemergence, 125 g ai/ha, 0 to 100 scale (0 no effect, 100 complete control)
In short: as §1

[8] = tested on: barnyardgrass (Echinochloa crus-galli); assay: Test A postemergence, visual plant response rating; details: for Barnyardgrass plant response rating (0 to 100 scale): 500 g ai/ha, postemergence, 0 is no effect, 100 is complete control; for Barnyardgrass plant response rating: Postemergence, 125 g ai/ha, 0 to 100 scale (0 no effect, 100 complete control)
In short: as §1

[9] = tested on: blackgrass (Alopecurus myosuroides); assay: Test A postemergence, visual plant response rating; details: for Blackgrass plant response rating (0 to 100 scale): 500 g ai/ha, postemergence, 0 is no effect, 100 is complete control; for Blackgrass plant response rating: Postemergence, 125 g ai/ha, 0 to 100 scale (0 no effect, 100 complete control)
In short: as §1

corn (Zea mays) = assay: Test A postemergence, visual plant response rating; details: for Corn plant response rating (0 to 100 scale): 500 g ai/ha, postemergence, 0 is no effect, 100 is complete control; for Corn plant response rating: Postemergence, 125 g ai/ha, 0 to 100 scale (0 no effect, 100 complete control)
In short: as §1

[10] = tested on: foxtail, giant (giant foxtail, Setaria faberii); assay: Test A postemergence, visual plant response rating; details: for Foxtail, Giant plant response rating (0 to 100 scale): 500 g ai/ha, postemergence, 0 is no effect, 100 is complete control; for Foxtail, Giant plant response rating: Postemergence, 125 g ai/ha, 0 to 100 scale (0 no effect, 100 complete control)
In short: as §1

[11] = tested on: galium (catchweed bedstraw, Galium aparine); assay: Test A postemergence, visual plant response rating; details: for Galium plant response rating (0 to 100 scale): 500 g ai/ha, postemergence, 0 is no effect, 100 is complete control; for Galium plant response rating: Postemergence, 125 g ai/ha, 0 to 100 scale (0 no effect, 100 complete control)
In short: as §1

kochia (Kochia scoparia) [12] = assay: Test A postemergence, visual plant response rating; details: for Kochia plant response rating (0 to 100 scale): 500 g ai/ha, postemergence, 0 is no effect, 100 is complete control; for Kochia plant response rating: Postemergence, 125 g ai/ha, 0 to 100 scale (0 no effect, 100 complete control)
In short: as §1

[13] = tested on: pigweed (Amaranthus retroflexus); assay: Test A postemergence, visual plant response rating; details: for Pigweed plant response rating (0 to 100 scale): 500 g ai/ha, postemergence, 0 is no effect, 100 is complete control; for Pigweed plant response rating: Postemergence, 125 g ai/ha, 0 to 100 scale (0 no effect, 100 complete control)
In short: as §1

[14] = tested on: ragweed (common ragweed, Ambrosia elatior); assay: Test A postemergence, visual plant response rating; details: for Ragweed plant response rating (0 to 100 scale): 500 g ai/ha, postemergence, 0 is no effect, 100 is complete control; for Ragweed plant response rating: Postemergence, 125 g ai/ha, 0 to 100 scale (0 no effect, 100 complete control)
In short: as §1

[15] = tested on: wheat (Triticum aestivum); assay: Test A postemergence, visual plant response rating; details: for Wheat plant response rating (0 to 100 scale): 500 g ai/ha, postemergence, 0 is no effect, 100 is complete control; for Wheat plant response rating: Postemergence, 125 g ai/ha, 0 to 100 scale (0 no effect, 100 complete control)
In short: as §1

[16] = tested on: barnyardgrass (Echinochloa crus-galli); assay: Test B flooded paddy test, visual plant response rating; details: 250 g ai/ha, Flood, applied to paddy water, 2-leaf stage, evaluated after 13 to 15 days
In short: (§2)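 Visual scores compare treated plants with controls after 13 to 15 days of greenhouse growth. Treatment was made into paddy water standing 3 cm above the soil, with plants at the 2-leaf stage and flooding maintained throughout.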

[17] = tested on: ducksalad (Heteranhera limosa); assay: as above; details: 250 g ai/ha, Flood, applied to paddy water, 2-leaf stage, evaluated after 13 to 15 days
In short: as §2

rice (Oryza sativa) = assay: as above; details: 250 g ai/ha, Flood, applied to paddy water, 2-leaf stage, evaluated after 13 to 15 days
In short: as §2

[18] = tested on: sedge, umbrella (small-flower umbrella sedge, Cyperus difformis); assay: as above; details: 250 g ai/ha, Flood, applied to paddy water, 2-leaf stage, evaluated after 13 to 15 days
In short: as §2

| Structure (SMILES) | Ryegrass, Italian plant response rating [1] | Ryegrass, Italian plant response rating (0 to 100 scale) [1] | Barnyardgrass plant response rating [2] | Barnyardgrass plant response rating (0 to 100 scale) [2] | Foxtail, Giant plant response rating [3] | Foxtail, Giant plant response rating (0 to 100 scale) [3] | Kochia plant response rating (kochia (Kochia scoparia) [4]) | Kochia plant response rating (0 to 100 scale) (kochia (Kochia scoparia) [4]) | Pigweed plant response rating [5] | Pigweed plant response rating (0 to 100 scale) [5] | Ragweed plant response rating [6] | Ragweed plant response rating (0 to 100 scale) [6] | Ryegrass, Italian plant response rating (0 to 100 scale) [7] | Ryegrass, Italian plant response rating [7] | Barnyardgrass plant response rating (0 to 100 scale) [8] | Barnyardgrass plant response rating [8] | Blackgrass plant response rating (0 to 100 scale) [9] | Blackgrass plant response rating [9] | Corn plant response rating (0 to 100 scale) (corn (Zea mays)) | Corn plant response rating (corn (Zea mays)) | further results |
| --- | --- | --- | --- | --- | --- | --- | --- | --- | --- | --- | --- | --- | --- | --- | --- | --- | --- | --- | --- | --- | --- |
| CCO/N=C(/c1c(O)c(C)nn(C)c1=O)c1ccc(F)c2ccccc12 [Compound 84] | 100 | 100 | 60 | 100 | 100 | 100 | 20 | 60 | 100 | 100 | 80 | 100 | 100 | 90 | 80 | 60 | 100 | 90 | 30 | 20 | Foxtail, Giant plant response rating (0 to 100 scale) [10]: 80; Foxtail, Giant plant response rating [10]: 70; Galium plant response rating (0 to 100 scale) [11]: 100; Galium plant response rating [11]: 90; Kochia plant response rating (0 to 100 scale) (kochia (Kochia scoparia) [12]): 80; Kochia plant response rating (kochia (Kochia scoparia) [12]): 70; Pigweed plant response rating (0 to 100 scale) [13]: 90; Pigweed plant response rating [13]: 80; Ragweed plant response rating (0 to 100 scale) [14]: 100; Ragweed plant response rating [14]: 90; Wheat plant response rating (0 to 100 scale) [15]: 50; Wheat plant response rating [15]: 40; Plant response rating, Barnyardgrass (0 to 100 scale, 0 is no effect, 100 is complete control) [16]: 0; Plant response rating, Ducksalad (0 to 100 scale, 0 is no effect, 100 is complete control) [17]: 0; Plant response rating, Rice (0 to 100 scale, 0 is no effect, 100 is complete control) (rice (Oryza sativa)): 0; Plant response rating, Sedge, Umbrella (0 to 100 scale, 0 is no effect, 100 is complete control) [18]: 0 |
| CCO/N=C(\c1c(O)c(C)nn(C)c1=O)c1ccc(F)c2ccccc12 [Compound 85] | 100 | 100 | 70 | 90 | 80 | 100 | 10 | 50 | 100 | 100 | 90 | 100 | 100 | 90 | 80 | 50 | 100 | 90 | 30 | 10 | Foxtail, Giant plant response rating (0 to 100 scale) [10]: 80; Foxtail, Giant plant response rating [10]: 70; Galium plant response rating (0 to 100 scale) [11]: 90; Galium plant response rating [11]: 80; Kochia plant response rating (0 to 100 scale) (kochia (Kochia scoparia) [12]): 90; Kochia plant response rating (kochia (Kochia scoparia) [12]): 70; Pigweed plant response rating (0 to 100 scale) [13]: 90; Pigweed plant response rating [13]: 80; Ragweed plant response rating (0 to 100 scale) [14]: 100; Ragweed plant response rating [14]: 90; Wheat plant response rating (0 to 100 scale) [15]: 50; Wheat plant response rating [15]: 40; Plant response rating, Barnyardgrass (0 to 100 scale, 0 is no effect, 100 is complete control) [16]: 0; Plant response rating, Ducksalad (0 to 100 scale, 0 is no effect, 100 is complete control) [17]: 0; Plant response rating, Rice (0 to 100 scale, 0 is no effect, 100 is complete control) (rice (Oryza sativa)): 0; Plant response rating, Sedge, Umbrella (0 to 100 scale, 0 is no effect, 100 is complete control) [18]: 0 |
| C=CCO/N=C(\c1c(O)c(C)nn(C)c1=O)c1ccc(F)c2ccccc12 [Compound 86] | 100 | 100 | 90 | 90 | 100 | 100 | 20 | 30 | 90 | 100 | 80 | 100 | 100 | 90 | 80 | 50 | 90 | 90 | 20 | 0 | Foxtail, Giant plant response rating (0 to 100 scale) [10]: 80; Foxtail, Giant plant response rating [10]: 70; Galium plant response rating (0 to 100 scale) [11]: 100; Galium plant response rating [11]: 70; Kochia plant response rating (0 to 100 scale) (kochia (Kochia scoparia) [12]): 50; Kochia plant response rating (kochia (Kochia scoparia) [12]): 40; Pigweed plant response rating (0 to 100 scale) [13]: 80; Pigweed plant response rating [13]: 70; Ragweed plant response rating (0 to 100 scale) [14]: 100; Ragweed plant response rating [14]: 100; Wheat plant response rating (0 to 100 scale) [15]: 80; Wheat plant response rating [15]: 50; Plant response rating, Barnyardgrass (0 to 100 scale, 0 is no effect, 100 is complete control) [16]: 0; Plant response rating, Ducksalad (0 to 100 scale, 0 is no effect, 100 is complete control) [17]: 0; Plant response rating, Rice (0 to 100 scale, 0 is no effect, 100 is complete control) (rice (Oryza sativa)): 0; Plant response rating, Sedge, Umbrella (0 to 100 scale, 0 is no effect, 100 is complete control) [18]: 0 |
| C=CCO/N=C(/c1c(O)c(C)nn(C)c1=O)c1ccc(F)c2ccccc12 [Compound 87] | 90 | 100 | 70 | 90 | 90 | 100 | 0 | 30 | 30 | 100 | 90 | 90 | 100 | 80 | 80 | 60 | 90 | 80 | 30 | 0 | Foxtail, Giant plant response rating (0 to 100 scale) [10]: 80; Foxtail, Giant plant response rating [10]: 70; Galium plant response rating (0 to 100 scale) [11]: 100; Galium plant response rating [11]: 80; Kochia plant response rating (0 to 100 scale) (kochia (Kochia scoparia) [12]): 70; Kochia plant response rating (kochia (Kochia scoparia) [12]): 40; Pigweed plant response rating (0 to 100 scale) [13]: 90; Pigweed plant response rating [13]: 70; Ragweed plant response rating (0 to 100 scale) [14]: 90; Ragweed plant response rating [14]: 100; Wheat plant response rating (0 to 100 scale) [15]: 60; Wheat plant response rating [15]: 40; Plant response rating, Barnyardgrass (0 to 100 scale, 0 is no effect, 100 is complete control) [16]: 0; Plant response rating, Ducksalad (0 to 100 scale, 0 is no effect, 100 is complete control) [17]: 0; Plant response rating, Rice (0 to 100 scale, 0 is no effect, 100 is complete control) (rice (Oryza sativa)): 0; Plant response rating, Sedge, Umbrella (0 to 100 scale, 0 is no effect, 100 is complete control) [18]: 0 |
